In patent US20140357713A1, “ANTIMICROBIAL COMPOUNDS AND METHODS OF USE” (NexMed Holdings, Inc., priority 2012, published 2014):
Like-named read-outs stand apart in the source and are kept apart here.

How the values were obtained:
[1] = tested on: Candida albicans (ATCC 90029); experiment: Time kill study, Example 33 (0 to 5 min); assay type: cell-based; conditions: 1×MIC
Procedure, shortened: (§1)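 Performed per CLSI guidelines. Strain suspensions prepared as for MIC testing were mixed with compound solution in equal volume; samples taken at 0 min, 30 sec, 1 min and 5 mins were diluted in test medium, streaked on agar, and colonies counted after 24 to 48 hrs to give viable counts in Log10 CFU/mL.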

[2] = tested on: Staphylococcus aureus (ATCC 29213); experiment: Time kill study, Example 33 (0 to 5 min); assay type: cell-based; conditions: 1×MIC
Procedure, shortened: as §1

[3] = tested on: Pseudomonas aeruginosa (ATCC 27853); experiment: Time kill study, Example 33 (0 to 5 min); assay type: cell-based; conditions: 1×MIC
Procedure, shortened: as §1

[4] = tested on: Escherichia coli (ATCC 25922); experiment: Time kill study, Example 33 (0 to 5 min); assay type: cell-based; conditions: 1×MIC
Procedure, shortened: as §1

Escherichia coli = experiment: Extended time kill study, Example 34 (0 to 24 h); assay type: cell-based
Procedure, shortened: (§2)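 Strain suspensions prepared as for MIC testing were mixed 1:1 with compound solution at higher multiples of MIC. Samples taken over 0 to 24 h were diluted in test medium and plated on agar, and colonies were counted after 24–48 h incubation.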

Staphylococcus aureus = experiment: Extended time kill study, Example 34 (0 to 24 h); assay type: cell-based
Procedure, shortened: as §2

[5] = Solubility (Sol., Table 1); assay type: physicochemical
[6] = tested on: Candida albicans (ATCC 90029); experiment: Minimum inhibitory concentration (MIC) assay, Example 33; assay type: cell-based; conditions: Candida albicans
Procedure, shortened: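 Broth microdilution per CLSI guidelines in RPMI 1640; inoculum set to OD530 0.08–0.13, diluted 1:50 then 1:20 to 2× strength and mixed 1:2 with 2-fold serial compound dilutions. Incubated at 35° C; MIC read per CLSI.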

CCCCCCCCCCCCOC(=O)C(C)NC.Cl (centres unmarked) [Nex-59, Dodecyl 2-(methylamino)propanoate hydrochloride]
Viable counts, Candida albicans time kill study ([1]; 0.5 min): 5.18 Log10 CFU/mL
Viable counts, Candida albicans time kill study ([1]; 1 min): 5.32 Log10 CFU/mL
Viable counts, Candida albicans time kill study ([1]; 5 min): 5.23 Log10 CFU/mL
Viable counts, Candida albicans time kill study ([1]; time 0): 5.3 Log10 CFU/mL
Viable counts, Staphylococcus aureus time kill study ([2]; 0.5 min): 6.33 Log10 CFU/mL
Viable counts, Staphylococcus aureus time kill study ([2]; 1 min): 6.22 Log10 CFU/mL
Viable counts, Staphylococcus aureus time kill study ([2]; 5 min): 6.15 Log10 CFU/mL
Viable counts, Staphylococcus aureus time kill study ([2]; time 0): 6.33 Log10 CFU/mL
Viable counts, Pseudomonas aeruginosa time kill study ([3]; 0.5 min): 5.26 Log10 CFU/mL
Viable counts, Pseudomonas aeruginosa time kill study ([3]; 1 min): 4.78 Log10 CFU/mL
Viable counts, Pseudomonas aeruginosa time kill study ([3]; 5 min): <3.52 Log10 CFU/mL
Viable counts, Pseudomonas aeruginosa time kill study ([3]; time 0): 5.65 Log10 CFU/mL
Viable counts, Escherichia coli time kill study ([4]; 0.5 min): 5.04 Log10 CFU/mL
Viable counts, Escherichia coli time kill study ([4]; 1 min): 5.11 Log10 CFU/mL
Viable counts, Escherichia coli time kill study ([4]; 5 min): 4.56 Log10 CFU/mL
Viable counts, Escherichia coli time kill study ([4]; time 0): 5.34 Log10 CFU/mL
Viable counts, Escherichia coli time kill study (Escherichia coli; 1 × MIC, 1 h): 1 Log10 CFU/mL
Viable counts, Escherichia coli time kill study (Escherichia coli; 1 × MIC, 2 h): <1 Log10 CFU/mL
Viable counts, Escherichia coli time kill study (Escherichia coli; 1 × MIC, 4 h): 1.85 Log10 CFU/mL
Viable counts, Escherichia coli time kill study (Escherichia coli; 1 × MIC, 6 h): 2.81 Log10 CFU/mL
Viable counts, Escherichia coli time kill study (Escherichia coli; 1 × MIC, 24 h): 7.91 Log10 CFU/mL
Viable counts, Escherichia coli time kill study (Escherichia coli; 1×MIC, time 0): 5 Log10 CFU/mL
Viable counts, Escherichia coli time kill study (Escherichia coli; 2 × MIC, 1 h): <1 Log10 CFU/mL
Viable counts, Escherichia coli time kill study (Escherichia coli; 2 × MIC, 2 h): <1 Log10 CFU/mL
Viable counts, Escherichia coli time kill study (Escherichia coli; 2 × MIC, 4 h): <1 Log10 CFU/mL
Viable counts, Escherichia coli time kill study (Escherichia coli; 2 × MIC, 6 h): <1 Log10 CFU/mL
Viable counts, Escherichia coli time kill study (Escherichia coli; 2 × MIC, 24 h): <1 Log10 CFU/mL
Viable counts, Escherichia coli time kill study (Escherichia coli; 2 × MIC, time 0): 5.12 Log10 CFU/mL
Viable counts, Escherichia coli time kill study (Escherichia coli; 4 × MIC, 1 h): <1 Log10 CFU/mL
Viable counts, Escherichia coli time kill study (Escherichia coli; 4 × MIC, 2 h): <1 Log10 CFU/mL
Viable counts, Escherichia coli time kill study (Escherichia coli; 4 × MIC, 4 h): <1 Log10 CFU/mL
Viable counts, Escherichia coli time kill study (Escherichia coli; 4 × MIC, 6 h): <1 Log10 CFU/mL
Viable counts, Escherichia coli time kill study (Escherichia coli; 4 × MIC, 24 h): <1 Log10 CFU/mL
Viable counts, Escherichia coli time kill study (Escherichia coli; 4 × MIC, time 0): 5.04 Log10 CFU/mL
Viable counts, Staphylococcus aureus time kill study (Staphylococcus aureus; 1 × MIC, 1 h): <3 Log10 CFU/mL
Viable counts, Staphylococcus aureus time kill study (Staphylococcus aureus; 1 × MIC, 2 h): <3 Log10 CFU/mL
Viable counts, Staphylococcus aureus time kill study (Staphylococcus aureus; 1 × MIC, 4 h): <3 Log10 CFU/mL
Viable counts, Staphylococcus aureus time kill study (Staphylococcus aureus; 1 × MIC, 6 h): <3 Log10 CFU/mL
Viable counts, Staphylococcus aureus time kill study (Staphylococcus aureus; 1 × MIC, 24 h): <1 Log10 CFU/mL
Viable counts, Staphylococcus aureus time kill study (Staphylococcus aureus; 1×MIC, time 0): 6.20 Log10 CFU/mL
Viable counts, Staphylococcus aureus time kill study (Staphylococcus aureus; 2 × MIC, 1 h): <3 Log10 CFU/mL
Viable counts, Staphylococcus aureus time kill study (Staphylococcus aureus; 2 × MIC, 2 h): <3 Log10 CFU/mL
Viable counts, Staphylococcus aureus time kill study (Staphylococcus aureus; 2 × MIC, 4 h): <3 Log10 CFU/mL
Viable counts, Staphylococcus aureus time kill study (Staphylococcus aureus; 2 × MIC, 6 h): <3 Log10 CFU/mL
Viable counts, Staphylococcus aureus time kill study (Staphylococcus aureus; 2 × MIC, 24 h): <1 Log10 CFU/mL
Viable counts, Staphylococcus aureus time kill study (Staphylococcus aureus; 2 × MIC, time 0): 6.19 Log10 CFU/mL
Viable counts, Staphylococcus aureus time kill study (Staphylococcus aureus; 4 × MIC, 1 h): <3 Log10 CFU/mL
Viable counts, Staphylococcus aureus time kill study (Staphylococcus aureus; 4 × MIC, 2 h): <3 Log10 CFU/mL
Viable counts, Staphylococcus aureus time kill study (Staphylococcus aureus; 4 × MIC, 4 h): <3 Log10 CFU/mL
Viable counts, Staphylococcus aureus time kill study (Staphylococcus aureus; 4 × MIC, 6 h): <3 Log10 CFU/mL
Viable counts, Staphylococcus aureus time kill study (Staphylococcus aureus; 4 × MIC, 24 h): <1 Log10 CFU/mL
Viable counts, Staphylococcus aureus time kill study (Staphylococcus aureus; 4 × MIC, time 0): 6.18 Log10 CFU/mL
Sol. [5]: 33%
MIC ([6]; ATCC90029, Table 19 summary, read-out: MIC): 50 µg/mL
MIC ([6]; ATCC90029, n = 1, read-out: MIC Candida albicans): 25 µg/mL
MIC ([6]; ATCC90029, n = 2, read-out: MIC Candida albicans): 25 µg/mL
